Converted amounts (≈) assume the structure as drawn.
What was measured:
T. rubrum ATCC10218 = test: Measurement of antifungal activity (MIC, WST8 growth inhibition); assay type: cell-based; conditions: Trichophyton rubrum, 96 h; 80% growth inhibition concentration; T. rubrum ATCC10218, RPMI1640/MOPS, 28° C., 4 days
Protocol: (§1) The compounds for evaluation were dissolved in dimethyl sulfoxide (DMSO) and used. As the test medium, RPMI1640 medium containing 0.165 M 3-morpholino propane sulfonic acid (MOPS) was used. As the test strain, T. mentagrophytes ATCC18748 or T. rubrum ATCC10218 was used. 100 μL of the test strain each at a concentration of 1×10^4 conidia/mL was dispensed, mixed with compounds for evaluation on 96 well half area plate so that the concentration of DMSO becomes 1%, and cultured at 28° C. for 3 days (for T. mentagrophytes) or for 4 days (for T. rubrum). Then, 5 μL of Cell Counting Kit8 (WST8) was added and the absorbances at 450 nm and 595 nm was measured as background. Subsequently, they were incubated at 28° C. for 5 hours (for T. mentagrophytes) or overnight (for T. rubrum) to color, and again the absorbances at 450 nm and 595 nm was measured, and then calculated the growth inhibition percentages using the differences from the background, and 80% growth inhibition concentration was regarded as MIC (μg/ml). Measurement of antifungal activity was conducted by the following method. Compounds for evaluation were dissolved in dimethyl sulfoxide (DMSO) and used. As the test medium, RPMI1640 medium containing 0.165 M 3-morpholinopropane sulfonic acid (MOPS) was used. As the test strain, T. mentagrophytes ATCC18748 or T. rubrum ATCC10218 was used. 100 μL of the test strain was dispensed at a concentration of 1×10^4 conidia/mL, mixed with compounds for evaluation on 96 well half area plate so that the concentration of DMSO becomes 1%, and cultured at a culture temperature of 28° C. for 3 days (for T. mentagrophytes) or for 4 days (for T. rubrum). Then, 5 μL of Cell Counting Kit8 (WST8) was added and the absorbances at 450 nm and 595 nm was measured as background. Subsequently, they were incubated at 28° C. for 5 hours (for T. mentagrophytes) or overnight (for T. rubrum), and again measured the absorbances at 450 nm and 595 nm was measured, and then calculated the growth inhibition percentages using the differences from the background, and 80% growth inhibition concentration was regarded as MIC (μg/ml).

[1] = system: T. mentagrophytes ATCC18748; test: as above; assay type: cell-based; conditions: Trichophyton mentagrophytes, 72 h; 80% growth inhibition concentration; T. mentagrophytes ATCC18748, RPMI1640/MOPS, 28° C., 3 days
Protocol: as §1

SMILES	MIC (T. rubrum ATCC10218) [µg/mL]	MIC [1] [µg/mL]	inhibition of growth at 32 µg/mL [1] [%]
Cc1nn(-c2ccc(F)cc2O)c(C)c1C [Example 18, 5-Fluoro-2-(3,4,5-trimethyl-1H-pyrazol-1-yl)phenol]	4 to 16 (≈ 18.2 to 72.6 µM)	2 to 8 (≈ 9.08 to 36.3 µM)	
CC(=O)Oc1ccc(-n2nc(C)c(Cl)c2C)c(O)c1 [Example 58, 4-(4-chloro-3,5-dimethyl-1H-pyrazol-1-yl)-3-hydroxyphenyl acetate]	≤ 2	2 to 8	
Cc1cc(C)n(-c2c(N)cccc2O)n1 [Example 36, 3-Amino-2-(3,5-dimethyl-1H-pyrazol-1-yl)phenol]	32 to 64 (≈ 157 to 315 µM)		< 50
Cc1ccn(-c2ccccc2O)n1 [Example 7, 2-(3-Methyl-1H-pyrazol-1-yl)phenol]	> 64	16 to 32 (≈ 91.8 to 184 µM)	
Cc1ccnn1-c1ccccc1O [Example 8, 2-(5-Methyl-1H-pyrazol-1-yl)phenol]	> 64	16 to 32 (≈ 91.8 to 184 µM)	
Cc1cc(C)n(-c2ccccc2O)n1 [Example 1, 2-(3,5-Dimethyl-1H-pyrazol-1-yl)phenol]	4 to 16 (≈ 21.3 to 85 µM)	2 to 8 (≈ 10.6 to 42.5 µM)	
Cc1nn(-c2ccc(Cl)cc2O)c(C)c1C [Example 30, 5-Chloro-2-(3,4,5-trimethyl-1H-pyrazol-1-yl)phenol]	≤ 2	≤ 1	
Cc1cc(C)n(-c2cc(Cl)c(C)cc2O)n1 [Example 61, 4-chloro-2-(3,5-dimethyl-1H-pyrazol-1-yl)-5-methylphenol]	16 to 32 (≈ 67.6 to 135 µM)	16 to 32 (≈ 67.6 to 135 µM)	
Cc1cc(C)n(-c2ccc(CO)cc2O)n1 [Example 47, 2-(3,5-Dimethyl-1H-pyrazol-1-yl)-5-hydroxymethylphenol]	4 to 16 (≈ 18.3 to 73.3 µM)	2 to 8 (≈ 9.16 to 36.7 µM)	
Cc1nn(-c2ccc(Br)cc2O)c(C)c1C [Example 56, 5-bromo-2-(3,4,5-trimethyl-1H-pyrazol-1-yl)phenol]	≤ 2	≤ 1	
Cc1nn(-c2ccccc2O)c(C)c1F [Example 53, 2-(4-Fluoro-3,5-dimethyl-1H-pyrazol-1-yl)phenol]	4 to 16 (≈ 19.4 to 77.6 µM)	2 to 8 (≈ 9.7 to 38.8 µM)	
Cc1cc(C)n(-c2ccc(O)cc2O)n1 [Example 33, 4-(3,5-Dimethyl-1H-pyrazol-1-yl)benzene-1,3-diol]	≤ 2	2 to 8 (≈ 9.79 to 39.2 µM)	
Cc1nn(-c2ccccc2O)c(C)c1Cl [Example 13, 2-(4-Chloro-3,5-dimethyl-1H-pyrazol-1-yl)phenol]	4 to 16 (≈ 18 to 71.9 µM)	≤ 1	
Cc1nn(-c2ccc(F)cc2O)c(C)c1Cl [Example 21, 2-(4-Chloro-3,5-dimethyl-1H-pyrazol-1-yl)-5-fluoro phenol]	4 to 16 (≈ 16.6 to 66.5 µM)	≤ 1	
Cc1nn(-c2ccc(C(N)=O)cc2O)c(C)c1Cl [Example 42, 4-(4-Chloro-3,5-dimethyl-1H-pyrazol-1-yl)-3-hydroxybenzamide]	32 to 64 (≈ 120 to 241 µM)	16 to 32 (≈ 60.2 to 120 µM)	
COC(=O)CCc1c(C)nn(-c2ccccc2O)c1C [Example 23, Methyl 3-(1-(2-hydroxyphenyl)-3,5-dimethyl-1H-pyrazol-4-yl)propanoate]	32 to 64 (≈ 117 to 233 µM)	16 to 32 (≈ 58.3 to 117 µM)	
CCOC(=O)c1c(C)nn(-c2ccccc2O)c1C [Example 22, Ethyl 1-(2-hydroxyphenyl)-3,5-dimethyl-1H-pyrazol-4-carboxylate]	32 to 64 (≈ 123 to 246 µM)	16 to 32 (≈ 61.5 to 123 µM)	
Cc1cc(C)n(-c2ccc(Br)cc2O)n1 [Example 54, 5-bromo-2-(3,5-dimethyl-1H-pyrazol-1-yl)phenol]	≤ 2	≤ 1	
Cc1nn(-c2ccc([N+](=O)[O-])cc2O)c(C)c1C [Example 32, 5-Nitro-2-(3,4,5-trimethyl-1H-pyrazol-1-yl)phenol]	4 to 16 (≈ 16.2 to 64.7 µM)	2 to 8 (≈ 8.09 to 32.4 µM)	
Cc1cc(C)n(-c2ccc(C(=O)O)cc2O)n1 [Example 37, 4-(3,5-Dimethyl-1H-pyrazol-1-yl)-3-hydroxybenzene carboxylic acid]	4 to 16 (≈ 17.2 to 68.9 µM)	2 to 8 (≈ 8.61 to 34.4 µM)	
Cc1nn(-c2ccc(O)cc2O)c(C)c1Cl [Example 63, 4-(4-chloro-3,5-dimethyl-1H-pyrazol-1-yl)benzene-1,3-diol]	≤ 2	≤ 1	
Cc1nn(-c2ccc(C(=O)O)cc2O)c(C)c1C [Example 40, 3-Hydroxy-4-(3,4,5-trimethyl-1H-pyrazol-1-yl)benzene carboxylic acid]	32 to 64 (≈ 130 to 260 µM)		< 50
COc1ccc(-n2nc(C)cc2C)c(O)c1 [Example 45, 2-(3,5-Dimethyl-1H-pyrazol-1-yl)-5-methoxyphenol]	≤ 2	≤ 1	

SMILES	MIC (T. rubrum ATCC10218) [µg/mL]	MIC [1] [µg/mL]	inhibition of growth at 32 µg/mL [1] [%]
Cc1ccc(O)c(-n2nc(C)cc2C)c1 [Example 49, 2-(3,5-Dimethyl-1H-pyrazol-1-yl)-4-methylphenol]	32 to 64 (≈ 158 to 316 µM)		< 50
Cc1cc(C)n(-c2cccc(Cl)c2O)n1 [Example 12, 2-Chloro-6-(3,5-dimethyl-1H-pyrazol-1-yl)phenol]	> 64	16 to 32 (≈ 71.9 to 144 µM)	
CC(=O)Oc1ccc(-n2nc(C)c(C)c2C)c(O)c1 [Example 59, 3-hydroxy-4-(3,4,5-trimethyl-1H-pyrazol-1-yl)phenyl acetate]	4 to 16	2 to 8	
CCc1c(C)nn(-c2ccccc2O)c1C [Example 17, 2-(4-Ethyl-3,5-dimethyl-1H-pyrazol-1-yl)phenol]	≤ 2	≤ 1	
CCc1ccc(-n2nc(C)cc2C)c(O)c1 [Example 52, 2-(3,5-dimethyl-1H-pyrazol-1-yl)-5-ethylphenol]	≤ 2	≤ 1	
Cc1nn(-c2cc(F)ccc2O)c(C)c1C [Example 20, 4-Fluoro-2-(3,4,5-trimethyl-1H-pyrazol-1-yl)phenol]	32 to 64 (≈ 145 to 291 µM)	16 to 32 (≈ 72.6 to 145 µM)	
Cc1cc(C)n(-c2ccc([N+](=O)[O-])cc2O)n1 [Example 28, 2-(3,5-Dimethyl-1H-pyrazol-1-yl)-5-nitrophenol]	16 to 32 (≈ 68.6 to 137 µM)	2 to 8 (≈ 8.58 to 34.3 µM)	
Cc1nn(-c2ccccc2O)c(C)c1C [Example 9, 2-(3,4,5-Trimethyl-1H-pyrazol-1-yl)phenol]	≤ 2	≤ 1	
CCCCc1c(C)nn(-c2ccccc2O)c1C [Example 24, 2-(4-Butyl-3,5-dimethyl-1H-pyrazol-1-yl)phenol]	16 to 32 (≈ 65.5 to 131 µM)	≤ 1	
Cc1cc(C)n(-c2cccc(C)c2O)n1 [Example 51, 2-(3,5-dimethyl-1H-pyrazol-1-yl)-6-methylphenol]	32 to 64 (≈ 158 to 316 µM)		< 50
CNc1ccc(-n2nc(C)cc2C)c(O)c1 [Example 48, 2-(3,5-Dimethyl-1H-pyrazol-1-yl)-5-methylaminophenol]	4 to 16 (≈ 18.4 to 73.6 µM)	2 to 8 (≈ 9.21 to 36.8 µM)	
Oc1ccccc1-n1nc(C(F)(F)F)cc1C(F)(F)F [Example 6, 2-(3,5-Bistrifluoromethyl-1H-pyrazol-1-yl)phenol]	> 64	16 to 32 (≈ 54 to 108 µM)	
Cc1nn(-c2ccc(N)cc2O)c(C)c1C [Example 34, 5-Amino-2-(3,4,5-trimethyl-1H-pyrazol-1-yl)phenol]	4 to 16 (≈ 18.4 to 73.6 µM)	2 to 8 (≈ 9.21 to 36.8 µM)	
Cc1ccc(-n2nc(C)cc2C)c(O)c1 [Example 44, 2-(3,5-Dimethyl-1H-pyrazol-1-yl)-5-methylphenol]	≤ 2	≤ 1	
CCc1cc(CC)n(-c2ccccc2O)n1 [Example 14, 2-(3,5-Diethyl-1H-pyrazol-1-yl)phenol]	4 to 16 (≈ 18.5 to 74 µM)	2 to 8 (≈ 9.25 to 37 µM)	
Cc1cc(C)n(-c2ccc(Cl)cc2O)n1 [Example 26, 5-Chloro-2-(3,5-dimethyl-1H-pyrazol-1-yl)phenol]	≤ 2	≤ 1	
Cc1cc(C)n(-c2c(O)cccc2O)n1 [Example 43, 2-(3,5-Dimethyl-1H-pyrazol-1-yl)benzene-1,3-diol]	32 to 64 (≈ 157 to 313 µM)		< 50
CC(C)(C)c1cc(N)n(-c2ccccc2O)n1 [Example 10, 2-(5-Amino-3-tert-butyl-1H-pyrazol-1-yl)phenol]	> 64		50 to 80
Cc1nn(-c2cc(O)ccc2O)c(C)c1Cl [Example 19, 2-(4-Chloro-3,5-dimethyl-1H-pyrazol-1-yl)benzene-1,4-diol]	16 to 32 (≈ 67 to 134 µM)	16 to 32 (≈ 67 to 134 µM)	
Cc1nn(-c2ccc(C(N)=O)cc2O)c(C)c1C [Example 41, 3-Hydroxy-4-(3,4,5-trimethyl-1H-pyrazol-1-yl)benzamide]	32 to 64 (≈ 130 to 261 µM)		50 to 80
Cc1cc(C)n(-c2ccc(N)cc2O)n1 [Example 31, 5-Amino-2-(3,5-dimethyl-1H-pyrazol-1-yl)phenol]	4 to 16 (≈ 19.7 to 78.7 µM)	2 to 8 (≈ 9.84 to 39.4 µM)	
Cc1cc(C)n(-c2c(C)cccc2O)n1 [Example 46, 2-(3,5-Dimethyl-1H-pyrazol-1-yl)-3-methylphenol]	32 to 64 (≈ 158 to 316 µM)		< 50

Reference: patent US8889727B2, “Topical antifungal agent” (Meiji Seika Pharma Co., Ltd., priority 2011, dated 2014)
